This note sets out measurements from article PMC10148881, “Recognition of an Ala-rich C-degron by the E3 ligase Pirh2” (Nature Communications, 2023).

Numbering of substitutions follows the chain as printed. Read-outs that look alike come from different tables or passages of the source. Ends that are not written are not given here. Peptide text beside a SMILES is read from it.

As a reminder, the Kd is the equilibrium constant for the complex coming apart.

For one test, the target named is T1, Pirh2 (NTD + RING) (Homo sapiens, UniProt Q96PM5).
T1 construct: Pirh2 NTD + RING (residues 1–189); 8xHis-SUMO (N, cleaved yes); made in house; host or cells: E. coli BL21 (DE3)
T1 sequence (Q96PM5 1-189): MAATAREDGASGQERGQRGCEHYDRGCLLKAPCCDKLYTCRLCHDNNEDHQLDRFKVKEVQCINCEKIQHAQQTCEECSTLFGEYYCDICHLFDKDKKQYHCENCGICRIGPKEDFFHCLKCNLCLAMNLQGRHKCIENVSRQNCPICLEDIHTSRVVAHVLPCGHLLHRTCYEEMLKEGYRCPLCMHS
Kind of test: ITC of degron peptides with Pirh2 NTD + RING. It counts as binding. The text has this:
The DNA fragments corresponding to human full-length Pirh2 (residues 1–261), Pirh2 NTD + RING (residues 1–189), Pirh2 NTD (residues 1–137), Pirh2 RING + CTD (residues 138–261), Pirh2 RING (residues 138–189) and Pirh2 CTD (residues […]) were cloned by seamless cloning into the pET28-MKH8SUMO vector (Addgene Plasmid #79526), which contains an 8× His-SUMO tag followed by a Tobacco etch virus (TEV) cleavage site. The DNA fragment of Pirh2 (residues 15–191)-linker (GSGSG)-polyAla (AAAAAA) was cloned into the pGEX vector, which contains a GST tag followed by a TEV cleavage site. The recombinant plasmids were transformed into E. coli BL21 (DE3) and the expression of the target proteins was induced with 0.2 mM isopropyl β-D-1-thiogalactopyranoside (IPTG) supplemented with 100 μM ZnCl2 at 18 °C overnight. Cells were harvested by centrifugation and resuspended in lysis buffer (20 mM Tris-HCl pH 8.5, 400 mM NaCl, 5% v/v glycerol, 10 μM ZnCl2 and 2 mM β-mercaptoethanol). The cells were lysed by sonication on ice and the lysates were clarified by centrifugation at 14,000 rpm for 40 min at 4 °C. The lysate containing GST tagged Pirh2-linker-polyAla was collected to incubate with GST beads for 1 h, and nonspecifically bound proteins were washed out by lysis buffer. The GST tag was proteolytically cleaved by adding the TEV protease to the GST beads overnight at 4 °C and the TEV protease was removed by passing through the Ni‐NTA column. The other supernatants were collected to incubate with Ni-NTA beads for 1 h at 4 °C. Nonspecifically bound proteins were washed out of Ni-NTA beads by washing buffer (20 mM Tris-HCl pH 8.5, 400 mM NaCl and 25 mM imidazole pH 8.5) and the fusion proteins were eluted by elution buffer (20 mM Tris-HCl pH 8.5, 400 mM NaCl and 300 mM imidazole pH 8.5). The SUMO tag was cleaved by TEV protease with a molar ration of 1: 20 in dialysis buffer (20 mM Tris-HCl pH 8.5 and 300 mM NaCl) at 4 °C overnight. The samples were reloaded onto the Ni-NTA column to remove the cleaved SUMO tag and TEV protease. Finally, all of the acquired proteins were further purified by size exclusion chromatography (Superdex 200 Increase 10/300 GL, GE healthcare), which was pre-equilibrated with gel-filtration buffer (20 mM Tris-HCl pH 7.5, 150 mM NaCl, 10 μM ZnCl2 and 1 mM DTT). Purified proteins were concentrated and stored at −80 °C for later use. Expression and purification of the mutants were performed in the same way as wild-type proteins.
Isothermal titration calorimetry (ITC) measurements were performed at 16 °C using a MicroCal PEAQ-ITC instrument (Malvern Panalytical). Proteins and peptides were prepared in an ITC buffer (20 mM Tris-HCl pH 7.5, 150 mM NaCl and 10 μM Zn^2+). ITC experiments were performed by titrating 1.5 μL (with the exception of the first injection of 0.5 μL) of peptides (0.6–1.0 mM) into cell containing 180–220 μM proteins, with a spacing time of 90 s and a reference power of 10 μcal s^−1. The titration data were analyzed using the one-site binding model from MicroCal PEAQ-ITC Analysis Software version 1.30. All ITC assays were repeated at least three times independently with similar results.

In a further test the target is T2, Pirh2 R54A (Homo sapiens, UniProt Q96PM5, R54A).
T2 construct: Pirh2 NTD + RING (residues 1–189); 8xHis-SUMO (N, cleaved yes); made in house; host or cells: E. coli BL21 (DE3)
T2 sequence (Q96PM5 1-189 R54A): T1 sequence (Q96PM5 1-189) with R54A
The experiment in a line: ITC of Ala6/C-degron peptide with mutant Pirh2 R54A. Conditions: Fig. 4a. It is filed as binding. The text has this: (§1) The DNA fragments corresponding to human full-length Pirh2 (residues 1–261), Pirh2 NTD + RING (residues 1–189), Pirh2 NTD (residues 1–137), Pirh2 RING + CTD (residues 138–261), Pirh2 RING (residues 138–189) and Pirh2 CTD (residues 187–261) were cloned by seamless cloning into the pET28-MKH8SUMO vector (Addgene Plasmid #79526), which contains an 8× His-SUMO tag followed by a Tobacco etch virus (TEV) cleavage site. The DNA fragment of Pirh2 (residues 15–191)-linker (GSGSG)-polyAla (AAAAAA) was cloned into the pGEX vector, which contains a GST tag followed by a TEV cleavage site. The recombinant plasmids were transformed into E. coli BL21 (DE3) and the expression of the target proteins was induced with 0.2 mM isopropyl β-D-1-thiogalactopyranoside (IPTG) supplemented with 100 μM ZnCl2 at 18 °C overnight. Cells were harvested by centrifugation and resuspended in lysis buffer (20 mM Tris-HCl pH 8.5, 400 mM NaCl, 5% v/v glycerol, 10 μM ZnCl2 and 2 mM β-mercaptoethanol). The cells were lysed by sonication on ice and the lysates were clarified by centrifugation at 14,000 rpm for 40 min at 4 °C. […]
(§2) Isothermal titration calorimetry (ITC) measurements were performed at 16 °C using a MicroCal PEAQ-ITC instrument (Malvern Panalytical). […] The titration data were analyzed using the one-site binding model from MicroCal PEAQ-ITC Analysis Software version 1.30. […]

The target in another test is T3, Pirh2 NTD (Homo sapiens, UniProt Q96PM5).
T3 construct: Pirh2 NTD (residues 1–137); 8xHis-SUMO (N, cleaved yes); made in house; host or cells: E. coli BL21 (DE3)
T3 sequence (Q96PM5 1-137): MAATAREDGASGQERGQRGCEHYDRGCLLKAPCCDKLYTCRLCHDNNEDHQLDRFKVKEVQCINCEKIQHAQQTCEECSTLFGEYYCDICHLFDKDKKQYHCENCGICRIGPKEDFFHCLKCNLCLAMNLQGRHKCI
Kind of test: ITC of degron peptide with Pirh2 NTD. Conditions: 16 °C, 20 mM Tris-HCl pH 7.5, 150 mM NaCl, 10 μM Zn2+, one-site binding model, repeated at least three times.
Text: as §1, §2

The next test has as its target T4, full-length Pirh2 (Homo sapiens, UniProt Q96PM5).
T4 construct: human full-length Pirh2 (residues 1–261); 8xHis-SUMO (N, cleaved yes); made in house; host or cells: E. coli BL21 (DE3)
T4 sequence (Q96PM5 1-261): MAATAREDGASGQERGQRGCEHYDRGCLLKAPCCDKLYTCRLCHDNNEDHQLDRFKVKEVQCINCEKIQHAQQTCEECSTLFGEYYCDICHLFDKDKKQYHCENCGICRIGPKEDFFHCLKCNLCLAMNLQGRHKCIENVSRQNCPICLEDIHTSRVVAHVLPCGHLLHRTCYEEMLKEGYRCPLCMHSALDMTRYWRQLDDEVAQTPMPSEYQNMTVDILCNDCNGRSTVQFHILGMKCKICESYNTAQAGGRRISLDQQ
Kind of test: ITC of degron peptide with full-length Pirh2. The settings on record: 16 °C, 20 mM Tris-HCl pH 7.5, 150 mM NaCl, 10 μM Zn2+, one-site binding model, repeated at least three times.
Text: as §1, §2

In another test the target is T5, Pirh2 I107D (Homo sapiens, UniProt Q96PM5, I107D).
T5 construct: Pirh2 NTD + RING (residues 1–189); 8xHis-SUMO (N, cleaved yes); made in house; host or cells: E. coli BL21 (DE3)
T5 sequence (Q96PM5 1-189 I107D): T1 sequence (Q96PM5 1-189) with I107D
Kind of test: ITC of Ala6/C-degron peptide with mutant Pirh2 I107D. The settings on record: Fig. 4a. It counts as binding.
Text: as §1, §2

Another test concerns the target T6, Pirh2 D94A (Homo sapiens, UniProt Q96PM5, D94A).
T6 construct: Pirh2 NTD + RING (residues 1–189); 8xHis-SUMO (N, cleaved yes); made in house; host or cells: E. coli BL21 (DE3)
T6 sequence (Q96PM5 1-189 D94A): T1 sequence (Q96PM5 1-189) with D94A
Kind of test: ITC of Ala6/C-degron peptide with mutant Pirh2 D94A. It counts as binding. Conditions: Fig. 4a.
Text: as §1, §2

A further test has as its target T7, Pirh2 S155D (Homo sapiens, UniProt Q96PM5, S155D).
T7 construct: Pirh2 NTD + RING (residues 1–189); 8xHis-SUMO (N, cleaved yes); made in house; host or cells: E. coli BL21 (DE3)
T7 sequence (Q96PM5 1-189 S155D): T1 sequence (Q96PM5 1-189) with S155D
The experiment in a line: ITC of Ala6/C-degron peptide with mutant Pirh2 S155D. It counts as binding. Conditions: Fig. 4a.
Text: as §1, §2

[1] abbreviates: ITC, 16 °C, 20 mM Tris-HCl pH 7.5, 150 mM NaCl, 10 μM Zn2+, one-site binding model, repeated at least three times, NB = no detectable binding under our experimental conditions, read-out: KD.

`C[C@H](N)C(=O)N[C@@H](C)C(=O)N[C@@H](C)C(=O)N[C@@H](C)C(=O)N[C@@H](C)C(=O)N[C@@H](C)C(=O)O` [AAAAAA]: the Kd at Pirh2 (NTD + RING) (setting [1]) was determined as 0.9 µM.

`C[C@H](N)C(=O)N[C@@H](C)C(=O)N[C@@H](C)C(=O)N[C@@H](C)C(=O)N[C@@H](C)C(=O)O` [AAAAA]: the Kd on Pirh2 (NTD + RING) (setting [1]) was found to be 2.5 µM. Consider `C[C@H](N)C(=O)N[C@@H](C)C(=O)N[C@@H](C)C(=O)N[C@@H](C)C(=O)O` [AAAA] (H-AAAA-OH), for which the Kd on Pirh2 (NTD + RING) (setting [1]) was 7.4 µM. On the same count and under the same terms, under `C[C@H](N)C(=O)N[C@@H](C)C(=O)N[C@@H](C)C(=O)O` [AAA] stands over 100 µM. As for YKTSAAAAAA [Ala6/C-degron], the Kd at Pirh2 R54A is over 100 µM; at Pirh2 NTD, 5.5 µM; on full-length Pirh2, 0.9 µM; at Pirh2 I107D it was 9.1 µM; at Pirh2 (NTD + RING) (setting [1]), 0.5 µM; on Pirh2 D94A, 3 µM. The same compound registered a Kd at Pirh2 S155D of 4.5 µM. In the case of YKTSAAIA, on Pirh2 (NTD + RING) (setting [1]), the Kd is 13 µM.

As for YKTSAAVA, the Kd on Pirh2 (NTD + RING) (setting [1]) was found to be 13 µM. As for YKTSAKAA, the Kd at Pirh2 (NTD + RING) (setting [1]) was determined as 5.5 µM. Take YKTSALAA: the Kd at Pirh2 (NTD + RING) (setting [1]) came out at 2.8 µM. With YKTSAPAA, the Kd at Pirh2 (NTD + RING) (setting [1]) was found to be 0.9 µM. Same read-out and setting: under YKTSASAA stands 3 µM; under YKTSATAAAA, 0.5 µM; under YKTSSAAA, 4.5 µM.

As for YKTSTAAAAA, the Kd at Pirh2 (NTD + RING) is 0.5 µM.
